Experimental data: US20020156236A1, “Binding sites for phosphotyrosine binding domains” (priority 1995, published 2002)
pIC50: −log10 of the molar value. Where a SMILES comes first, the peptide text is derived from it.

molecular target: T1, PTB domain/c-erbB2 binding (GST-PTB domain of SHC; c-erbB2 from SKBR3 lysate) (Homo sapiens, UniProt P29353); assay: biochemical; conditions: Inhibition (relative inhibition scale of IC50)
T1 construct: GST-PTB domain fusion proteins were expressed from recombinant baculovirus in sf9 cells; made in house; host or cells: Sf9 cells (recombinant baculovirus) for GST-PTB; c-erbB2 endogenous in SKBR3 cell lysate
T1 sequence (P29353 156-341): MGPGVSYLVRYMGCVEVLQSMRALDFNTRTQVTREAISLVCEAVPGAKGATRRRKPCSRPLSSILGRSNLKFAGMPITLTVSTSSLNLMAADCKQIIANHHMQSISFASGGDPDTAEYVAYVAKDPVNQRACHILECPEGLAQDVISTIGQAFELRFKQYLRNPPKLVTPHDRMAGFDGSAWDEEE

Row | Compound | pIC50
1 | CC(C)C[C@H](NC(=O)[C@H](CC(N)=O)NC(=O)[C@H](CC(=O)O)NC(=O)[C@H](Cc1ccccc1)NC(=O)[C@H](C)NC(=O)[C@@H]1CCCN1C(=O)[C@H](CO)NC(=O)[C@H](Cc1ccccc1)NC(=O)[C@H](C)NC(=O)[C@@H]1CCCN1)C(=O)N[C@@H](Cc1ccc(O)cc1)C(=O)N[C@@H](Cc1ccc(OP(=O)(O)O)cc1)C(=O)N[C@@H](Cc1c[nH]c2ccccc12)C(=O)N[C@@H](CC(=O)O)C(=O)N[C@@H](CC(N)=O)C(=O)N[C@@H](CC(N)=O)C(=O)N[C@@H](CO)C(=O)N[C@@H](CO)C(=O)N[C@@H](CCC(=O)O)C(=O)N[C@@H](CCC(N)=O)C(=O)NCC(=O)O [PAFSPAFDNLY (pY) WDNNSSEQG, PAFSPAFDNLY(pY)WDNNSSEQG] (HELM PEPTIDE1{P.A.F.S.P.A.F.D.N.L.Y.[O=C([C@H](Cc1ccc(OP(=O)(O)O)cc1)N[*:1])[*:2]].W.D.N.N.S.S.E.Q.G}$$$$V2.0) | 5.30 to 6.30
2 | CC(C)C[C@H](NC(=O)[C@H](CC(N)=O)NC(=O)[C@H](CC(=O)O)NC(=O)[C@H](Cc1ccccc1)NC(=O)[C@H](C)NC(=O)[C@@H]1CCCN1C(=O)[C@H](CO)NC(=O)[C@H](Cc1ccccc1)NC(=O)[C@H](C)NC(=O)[C@@H]1CCCN1)C(=O)N[C@@H](Cc1ccc(O)cc1)C(=O)N[C@@H](Cc1ccc(OP(=O)(O)O)cc1)C(=O)N[C@@H](C)C(=O)N[C@@H](CC(=O)O)C(=O)N[C@@H](CCC(N)=O)C(=O)N[C@@H](CC(N)=O)C(=O)N[C@@H](CO)C(=O)N[C@@H](CO)C(=O)N[C@@H](CCC(=O)O)C(=O)N[C@@H](CCC(N)=O)C(=O)NCC(=O)O [PAFSPAFDNLY (pY) ADQNSSEQG] (HELM PEPTIDE1{P.A.F.S.P.A.F.D.N.L.Y.[O=C([C@H](Cc1ccc(OP(=O)(O)O)cc1)N[*:1])[*:2]].A.D.Q.N.S.S.E.Q.G}$$$$V2.0) | < 4.30
3 | CC(C)C[C@H](NC(=O)[C@H](CC(N)=O)NC(=O)[C@H](CC(=O)O)NC(=O)[C@H](Cc1ccccc1)NC(=O)[C@H](C)NC(=O)[C@@H]1CCCN1C(=O)[C@H](CO)NC(=O)[C@H](Cc1ccccc1)NC(=O)[C@H](C)NC(=O)[C@@H]1CCCN1)C(=O)N[C@@H](Cc1ccc(O)cc1)C(=O)N[C@@H](Cc1ccc(OP(=O)(O)O)cc1)C(=O)N[C@@H](Cc1c[nH]c2ccccc12)C(=O)N[C@@H](CC(=O)O)C(=O)N[C@@H](CC(=O)O)C(=O)N[C@@H](CC(N)=O)C(=O)N[C@@H](CO)C(=O)N[C@@H](CO)C(=O)N[C@@H](CCC(=O)O)C(=O)N[C@@H](CCC(N)=O)C(=O)NCC(=O)O [PAFSPAFDNLY (pY) WDDNSSEQG, PAFSPAFDNLY(pY)WDDNSSEQG] (HELM PEPTIDE1{P.A.F.S.P.A.F.D.N.L.Y.[O=C([C@H](Cc1ccc(OP(=O)(O)O)cc1)N[*:1])[*:2]].W.D.D.N.S.S.E.Q.G}$$$$V2.0) | 5.30 to 6.30
4 | CC(C)C[C@H](NC(=O)[C@H](CC(N)=O)NC(=O)[C@H](CC(=O)O)NC(=O)[C@H](Cc1ccccc1)NC(=O)[C@H](C)NC(=O)[C@@H]1CCCN1C(=O)[C@H](CO)NC(=O)[C@H](Cc1ccccc1)NC(=O)[C@H](C)NC(=O)[C@@H]1CCCN1)C(=O)N[C@@H](Cc1ccc(O)cc1)C(=O)N[C@@H](Cc1ccc(OP(=O)(O)O)cc1)C(=O)N[C@@H](Cc1c[nH]c2ccccc12)C(=O)N[C@@H](CC(=O)O)C(=O)N[C@@H](CCC(N)=O)C(=O)N[C@@H](CC(N)=O)C(=O)N[C@@H](C)C(=O)N[C@@H](CO)C(=O)N[C@@H](CCC(=O)O)C(=O)N[C@@H](CCC(N)=O)C(=O)NCC(=O)O [PAFSPAFDNLY (pY) WDQNASEQG, PAFSPAFDNLY(pY)WDQNASEQG] (HELM PEPTIDE1{P.A.F.S.P.A.F.D.N.L.Y.[O=C([C@H](Cc1ccc(OP(=O)(O)O)cc1)N[*:1])[*:2]].W.D.Q.N.A.S.E.Q.G}$$$$V2.0) | 5.30 to 6.30
5 | CC(C)C[C@H](NC(=O)[C@H](CC(N)=O)NC(=O)[C@H](CC(=O)O)NC(=O)[C@H](Cc1ccccc1)NC(=O)[C@H](C)NC(=O)[C@@H]1CCCN1C(=O)[C@H](CO)NC(=O)[C@H](Cc1ccccc1)NC(=O)[C@H](C)NC(=O)[C@@H]1CCCN1)C(=O)N[C@@H](Cc1ccc(O)cc1)C(=O)N[C@@H](Cc1ccc(OP(=O)(O)O)cc1)C(=O)N[C@@H](Cc1ccccc1)C(=O)N[C@@H](CC(=O)O)C(=O)N[C@@H](CCC(N)=O)C(=O)N[C@@H](CC(N)=O)C(=O)N[C@@H](CO)C(=O)N[C@@H](CO)C(=O)N[C@@H](CCC(=O)O)C(=O)N[C@@H](CCC(N)=O)C(=O)NCC(=O)O [PAFSPAFDNLY (pY) FDQNSSEQG, PAFSPAFDNLY(pY)FDQNSSEQG] (HELM PEPTIDE1{P.A.F.S.P.A.F.D.N.L.Y.[O=C([C@H](Cc1ccc(OP(=O)(O)O)cc1)N[*:1])[*:2]].F.D.Q.N.S.S.E.Q.G}$$$$V2.0) | 5.30 to 6.30
6 | CC(C)C[C@H](NC(=O)[C@H](CC(N)=O)NC(=O)[C@H](C)NC(=O)[C@H](Cc1ccccc1)NC(=O)[C@H](C)NC(=O)[C@@H]1CCCN1C(=O)[C@H](CO)NC(=O)[C@H](Cc1ccccc1)NC(=O)[C@H](C)NC(=O)[C@@H]1CCCN1)C(=O)N[C@@H](Cc1ccc(O)cc1)C(=O)N[C@@H](Cc1ccc(OP(=O)(O)O)cc1)C(=O)N[C@@H](Cc1c[nH]c2ccccc12)C(=O)N[C@@H](CC(=O)O)C(=O)N[C@@H](CCC(N)=O)C(=O)N[C@@H](CC(N)=O)C(=O)N[C@@H](CO)C(=O)N[C@@H](CO)C(=O)N[C@@H](CCC(=O)O)C(=O)N[C@@H](CCC(N)=O)C(=O)NCC(=O)O [PAFSPAFANLY (pY) WDQNSSEQG, PAFSPAFANLY(pY)WDQNSSEQG] (HELM PEPTIDE1{P.A.F.S.P.A.F.A.N.L.Y.[O=C([C@H](Cc1ccc(OP(=O)(O)O)cc1)N[*:1])[*:2]].W.D.Q.N.S.S.E.Q.G}$$$$V2.0) | 4.30 to 5.30
